# Laboratory results as given in PMC8891364, “Synthesis, and docking studies of novel heterocycles incorporating the indazolylthiazole moiety as antimicrobial and anticancer agents” (Scientific Reports, 2022).
# Where “and” joins values, the source holds several entries; their conditions need not be identical. Equal values may be shown once.
# How the values were obtained:
# HepG-2 cells = test: MTT antitumor assay, hepatoma cells; format: cell-based, human; settings: for IC50: Homo sapiens, HepG2, 48 h; for SI HepG-2: ratio of IC50 of normal cells (HFB-4) versus IC50 of tumor cells
# Method: (§1) The human melanocytes (HFB-4) cells, hepatoma (HepG-2) cells, and colon carcinoma (Caco-2) cells were obtained from American Type Culture Collection (ATCC, USA). The cytotoxicity of the newly synthesized compounds (at various concentrations) was determined using the 3-[4, 5-dimethylthiazol]-2, 5-diphenyltetrazolium bromide method (MTT assay)[59] against HFB-4 cells (normal human melanocytes), HepG-2 cells (hepatoma), and Caco-2 cells (colon carcinoma). Normal and cancer cells (1.0 × 10^4) were cultured in sterile 96-well microplates, and incubated for 24 h in DMEM (Lonza, USA) supplemented with 10% fetal bovine serum (Gibco, USA) for HFB-4 and Caco-2 cells or in an RPMI-1640 medium (Lonza, USA) supplemented with 10% FBS for HepG-2 cells. After 24 h of incubation, different doses of the tested synthesized compounds ([…]) were added in triplicate to all cells and incubated for another 48 h in 5% CO2. After washing the cells 3 times with fresh media, to remove dead cells and debris, a solution of MTT (Sigma -Aldrich, 0.5 mg/mL) was added to each well and further incubated for 2–5 h at 37 °C. Afterward, the MTT solution was decanted and 200 µL of DMSO was added. The optical density was measured at 570 nm using a microplate reader (BMG LabTech, Germany), where the cells’ relative viability (%) was estimated using the following equation: viability of cells (%) = [A1 − A0/AU − A0] × 100, where A1 is the absorbance of the test compound, A0 is the absorbance of the blank, and AU is the absorbance of untreated cells (control).
# (§2) The antitumor activity of the synthesized compound was determined by calculating the IC50 value (half maximal inhibitory concentration) using Graph Pad Prism 6.0 software. The value of IC50 indicates the derivative concentration that causes 50% cell death, whereas the value of the selectivity index (SI), indicating the ratio of the IC50 value of normal cells versus the IC50 value of tumor cells, was also included as reported by[60],[61].
# β-catenin gene = test: qRT-PCR gene expression in HepG-2 and Caco-2 cells; format: cell-based, human; settings: IC50 concentrations, 2 days
# Method: (§3) The effects of the potent antitumor derivatives (4, 6, and 8) on the expression level of some tumor regulating genes were elucidated through quantitative real-time PCR (qRT- PCR) and compared to 5-fluorouracil (5-FU) as a reference antitumor drug. Five genes were assessed, including the tumor oncogene (Bcl-2), tumor suppressor gene (p53), matrix metalloproteinase gene (MMP-9), vascular endothelial growth factor gene (VEGF), and beta-catenin protein gene (β-catenin), in HepG-2 and Caco-2 cells, before and after treatment for 2 days with IC50 concentrations for compounds 4, 6, and 8. Following the extraction of total RNA from the tested cells, using the Gene JET RNA Purification Kit (Thermo Scientific, USA), cDNA synthesis was performed according to the cDNA Synthesis Kit protocol (Thermo Scientific, USA). qRT PCR was performed using the SYBR green kit and specific primers (Forward/Reverse) as follows: 5′-[…]-3'/5'-TCG GTCTCCTAAAAGCAGGC-3′ for the Bcl-2 gene, 5′-TAACAGTTCCTGCATG GG CG GC-3′/5′-[…]-3′ for p53, 5'-CTGCGTATTTCCATT CATC-3'/5'-CCTTGGGTCAGGTTTAGAG-3' for the MMP-9 gene, 5'-GGCTTTACT GCTGTACCTCC-3'/5'-CAAATGCTTTCTCCGCTCT-3' for the VEGF gene, and 5'-CATATGCGGCTGCTG TTCTA-3'/5'-CCGAAAG CCGTTTCTTGTAG-3' for the β-catenin gene. The upregulation and/or downregulation of the expression of the tested genes in Caco-2 and HepG-2 cells was determined by using the equation 2^−ΔΔCT[60].
# VEGF gene = test: qRT-PCR gene expression in HepG-2 and Caco-2 cells; format: cell-based, human; settings: IC50 concentrations, 2 days, compared to 5-FU and untreated cells
# Method: as §3
# Bcl-2 gene = test: qRT-PCR gene expression in HepG-2 and Caco-2 cells; format: cell-based, human; settings: for gene expression of Bcl-2: HepG-2 and Caco-2 cells, IC50 concentrations, 2 days, compared to 5-FU and untreated cells; for downregulation of Bcl-2 expression, fold: compared to control cells
# Method: as §3
# MMP-9 gene = test: qRT-PCR gene expression in HepG-2 and Caco-2 cells; format: cell-based, human; settings: IC50 concentrations, 2 days, compared to 5-FU and untreated cells
# Method: as §3
# HFB-4 cells = test: MTT cytotoxicity assay, normal human melanocytes; format: cell-based; settings: Melanocyte, 48 h
# Method: as §1, §2
# [1] = tested on: Candida albicans ATCC 10231; test: Antimicrobial microtiter-plate MIC assay; format: cell-based; settings: Candida albicans, ATCC10231; 24 h, 37 °C
# Method: (§4) The antimicrobial activity of the newly synthesized compounds (2–9) was evaluated against three model pathogenic microorganisms as follows: Streptococcus mutans ATCC 25175 (Gram-positive bacterium); Pseudomonas aeruginosa ATCC 27853 (Gram-negative bacterium); and Candida albicans ATCC 10231 (fungi-like unicellular organism). After cultivating the three tested pathogens overnight in LB broth, 100 µL of each tested organism (10^6 CFU/mL) was added separately to 100 µL of the serially diluted test compounds (5–80 µg) in a 96-well tissue culture plate and incubated at 37 °C for 24 h. Eventually, microbial growth was measured at 600 nm, and the results are presented in the form of MIC (Table 4). Two antibacterial reference drugs, ampicillin and ciprofloxacin, and one antifungal drug, clotrimazole, were incorporated into the experiments.
# [2] = tested on: Streptococcus mutans ATCC 25175; test: Antimicrobial microtiter-plate MIC assay; format: cell-based; settings: Streptococcus mutans, ATCC25175, 24 h, read-out: MIC Streptococcus mutant
# Method: as §4
# [3] = tested on: Pseudomonas aeruginosa ATCC 27853; test: Antimicrobial microtiter-plate MIC assay; format: cell-based; settings: Pseudomonas aeruginosa, ATCC27853; 24 h, 37 °C
# Method: as §4
# Pseudomonas aeruginosa = test: Microbial-biofilm inhibition, tissue-culture plate technique (TCP); format: cell-based; settings: 25 µg/mL, 24 h
# Method: (§5) The activity of the newly synthesized compounds against microbial biofilm formation was estimated through the tissue-culture plate technique (TCP) as follows: the three above-mentioned pathogens, Streptococcus mutans, Pseudomonas aeruginosa, and Candida albicans were cultivated overnight in LB broth at 37 °C. Afterward, 200 µL of each diluted organism (10^6 CFU/mL) was inoculated separately (in triplicate) into 96-well tissue culture plates and incubated overnight at 37 °C. The free planktonic cells were removed, after the incubation period, by flipping the plate and washing each well three times with phosphate-buffered-saline (PBS), pH 7.1. To each well, 175 µL of fresh LB broth was added along with 25 µL of the tested compound (25 µg/mL final concentrations). The plates were reincubated at 37 °C for another 24 h, washed with PBS buffer pH 7.1 three times, and dried for 5 min at 50 °C. The formed biofilm was stained with crystal violet solution (0.1% w/v) for 5 min. The excess stain was decanted, and the stained biofilm was solubilized with 200 µL of glacial acetic acid (30% v/v), where the developed blue color was measured at 590 nm. The results are expressed as relative inhibition (%) compared to untreated groups (control). Controls were prepared by culturing the three pathogens on LB medium without any tested compounds.
# Streptococcus mutans = test: as above; format: cell-based; settings: 25 µg/mL, 24 h
# Method: as §5
# Caco-2 cells [4] = test: MTT antitumor assay, colon carcinoma cells; format: cell-based; settings: for IC50: Homo sapiens, Caco-2, 48 h; for SI Caco-2: ratio of IC50 of normal cells (HFB-4) versus IC50 of tumor cells
# Method: as §1, §2
# Caco-2 cells [5] = test: Cell cycle arrest analysis by flow cytometry; format: cell-based, human; settings: 48 h, IC50 concentrations, vs untreated control
# Method: The cell cycle arrest of treated Caco-2 cells was evaluated through flow cytometry (Partec, Germany) in comparison with untreated cells and treated cells with 5-FU as a positive control[60],[62]. […] After washing the cells three times, the cells were fixed by adding 1 mL of 70% cold ethanol dropwise with a gentle vortex. Caco-2 cells were washed three times again with cold PBS and incubated in 1 mL of PBS containing 5 μg/mL RNase A (Sigma-Aldrich) for 1 h at 37 °C. Then 10 μL of PI (Sigma-Aldrich) was added to cells at a final concentration of 1 mg/mL in deionized water and left at 4 °C until analysis in the dark. The cell cycle of Caco-2 cells before and after treatment was analyzed by FACS using Cell Quist and Mod Fit software by reading at 488 nm.
# Candida albicans = test: Microbial-biofilm inhibition, tissue-culture plate technique (TCP); format: cell-based; settings: Candida albicans, 24 h, relative to untreated
# Method: as §5
SMILES,"IC50 (HepG-2 cells; MTT, 48 h)",SI HepG-2 (HepG-2 cells),expression of the β-catenin gene (β-catenin gene),gene expression of VEGF (VEGF gene),gene expression of Bcl-2 (Bcl-2 gene),"downregulation of Bcl-2 expression, fold (Bcl-2 gene)",gene expression of MMP-9 (MMP-9 gene),IC50 (HFB-4 cells),MIC [1],MIC [2],MIC [3],antibiofilm formation activity Streptococcus mutans (in words) (Streptococcus mutans),"IC50 (Caco-2 cells [4]; MTT, 48 h)",SI Caco-2 (Caco-2 cells [4]),apoptotic phase (sub-G1) population (Caco-2 cells [5]),synthesis (S) phase population (Caco-2 cells [5]),further results
"N#Cc1c(N)oc2nc(N3NC4=C(CCCC4)C3c3ccccc3)sc12 (centres unmarked) [Compound 4, 5-amino-2-(3-phenyl-1,3,4,5,6,7-hexahydro-2H-indazol-2-yl)furo[2,3-d] thiazole-6-carbonitrile]",7.88 ± 0.1 µg/mL,18.1 and 18.06 ± 0.19,significantly suppressed,significantly downregulated,significantly downregulated,more than threefold,significantly downregulated,142 ± 1.48 µg/mL,48.9 ± 1.05 µg/mL,34.41 ± 0.237 µg/mL,60.8 ± 2.22 µg/mL,had antibiofilm formation activities,6.18 ± 1.14 µg/mL,23 and 23.03 ± 0.24,becomes detectable after treatment,decreased,biofilm inhibition activity Pseudomonas aeruginosa (in words) (Pseudomonas aeruginosa): high biofilm inhibition activity
"NNC(=O)c1c(N)sc2sc(N3NC4=C(CCCC4)C3c3ccccc3)nc12 (centres unmarked) [Compound 6, 5-amino-2-(3-phenyl-1,3,4,5,6,7-hexahydro-2H-indazol-2-yl)thieno[3,2-d] thiazole-6-carbohydrazide]",6.12 ± 0.19 µg/mL,21.8 and 21.75 ± 0.03,significantly suppressed,significantly downregulated,significantly downregulated,more than threefold,significantly downregulated,133 ± 4.18 µg/mL,57.3 ± 1.32 µg/mL,39.58 ± 0.348 µg/mL,58.5 ± 2.27 µg/mL,–,5.21 ± 0.22 µg/mL,25.6 and 25.59 ± 0.03,becomes detectable after treatment,decreased,inhibition at 25 µg/mL (Candida albicans): 61%
"N#CCc1nn(N)c2nc(N3NC4=C(CCCC4)C3c3ccccc3)sc12 (centres unmarked) [Compound 8, 2-(1-amino-5-(3-phenyl-1,3,4,5,6,7-hexahydro-2H-indazol-2-yl)-1H-pyrazolo [3,4-d]thiazol-3-yl)acetonitrile]",~5.9 µg/mL,26.23 ± 0.30,significantly suppressed,significantly downregulated,significantly downregulated,more than threefold,significantly downregulated,154 ± 1.76 µg/mL,56.2 ± 1.24 µg/mL,15.8 ± 0.205 µg/mL,53 ± 2.18 µg/mL,had antibiofilm formation activities,~5.9 µg/mL,26.08 ± 0.30,becomes detectable after treatment,decreased,"IC50 HepG-2 (HepG-2 cells; MTT, 48 h): 5.86 ± 0.34 µg/mL; SI HepG-2 (HepG-2 cells; listed as Derivative 8): about 26; IC50 Caco-2 (Caco-2 cells [4]; MTT, 48 h): 5.89 ± 0.38 µg/mL; SI Caco-2 (Caco-2 cells [4]; listed as Derivative 8): about 26"
